{"source": "patent US7998681B2", "about": "“Diagnosis and therapy of antibody-mediated inflammatory auto-immune disorders” (Los Angeles Biomedical Research Institute at Harbor-UCLA …, priority 2000, dated 2011)", "key": {"[1]": {"system": "fibroblasts from individuals without known thyroid disease", "assay": "T lymphocyte migration (chemotaxis) assay of conditioned medium from treated fibroblasts, normal donors", "type": "cell-based, human", "conditions": "IgG 100 ng/ml, IL-1β 10 ng/ml, 24 hours", "protocol": "The general migration assay is described in detail in Sciaky, D., et al., “Cultured human fibroblasts express constitutive IL-16 mRNA: Cytokine induction of active IL-16 protein synthesis through a caspase-3-dependent mechanism,” J. Immunol. 164(7):3806-14 (2000), hereby incorporated fully by reference. Briefly, fibroblasts from TAO and normal orbital tissue were seeded in 24-well arrays and grown to confluence. Monolayers were shifted containing 1% FBS to which nothing, purified normal or TAO IgG was added for various time intervals. Medium was collected and stored until use at −80° C. Chemotaxis was examined using Boyden chambers to which NWNA-T lymphocytes were added as the cellular targets. 50 μl cell suspension (10^7 cells/ml) were placed in the upper compartments of 48-well micro-chemotaxis chambers separated from 32 μl of serum samples by 8 μm micropore nitrocellulose filters (Neuroprobe). These were incubated at 37° C. in 5% CO2 environment for 3 hr. Filters were fixed, stained with hematoxylin, dehydrated, mounted on glass slides and viewed by light microscopy. Lymphocyte migration was quantified by counting the total number of cells migrating beyond a fixed depth. This depth was set to routinely identify a baseline migration under control conditions of 10-15 cells per high power field. Five such fields were counted in duplicate for each sample and the means±SD were calculated and expressed as percentage values of baseline cell migration in control buffer alone (100%). For each set of experimental conditions, at least three separate determinations were performed. Differences between experimental groups were analyzed by the Student t test using absolute values obtained for lymphocyte migration and statistical difference was accepted at the 95% level of confidence.\nTo assess specificity for IL-16, experiments were conducted by incubating samples of culture media for 15 min with neutralizing concentrations of anti-IL-16 MAB (clone 14. 1, 10 μg/ml), which blocks the chemotactic activity of 50 ng/ml of rIL-16. Anti-RANTES MAB (5 μg/ml) having an ND50 of 200 ng/ml rRANTES was used to neutralize RANTES as described in Sciaky D., Brazer, W., Center, D. M., Cruikshank, W. W. and Smith, T. J.: Cultured human fibroblasts express constitutive IL-16 mRNA: Cytokine induction of active IL-16 protein synthesis through a caspase-3-dependent mechanism. J. Immunol. 164(7):3806-14, 2000).\nReferring to FIGS. 3A-3C, serum concentrations of IL-16 are elevated in patients with active TAO. Moreover, both IL-16 and PGHS-2 protein can be detected in TAO orbital tissue. The concentration of IL-16 is determined in sera from either patients with Graves' disease or normal controls. The sera are subjected to an ELISA assay, which utilizes an anti-IL-16 specific antibody. IL-16 is detected by standard immunohistochemical techniques in thin sections harvested from affected orbital connective tissues from a patient with severe Graves' ophthalmopathy. In a separate measurement of IL-16 dependent T-cell migration, a panel of 11 different fibroblast strains from patients with Graves' disease and 5 from individuals without known thyroid disease were challenged with Graves' IgG (100 ng/ml), normal IgG (100 ng/ml) or IL-1β (10 ng/ml) for 24 hours and assessed for T cell migration activity and IL-16 production (Table II). Graves' IgG induced IL-16 dependent cell migration in 10 of the Graves' fibroblast strains which derived from orbit and skin from various anatomic regions. Included were strains from the pretibial skin as well as the abdominal wall and the neck. The latter two sites rarely manifest Graves' disease. A substantial fraction of Graves' IgG provoked T cell migration activity in most of these strains was resistant to neutralization with anti-IL-16. Similarly, chemoattractants produced by RA fibroblasts can be measured by T-cell migration. […]"}, "[2]": {"system": "dermal fibroblast strains", "assay": "Glycosaminoglycan (hyaluronan) synthesis in dermal fibroblasts", "type": "cell-based, human", "conditions": "dermal fibroblast strains from the same donors", "description": "Applicants have also recently made a number of directly relevant observations of the disordered accumulation of hyaluronan in TAO. Orbital fibroblasts synthesize less hyaluronan constitutively than do dermal fibroblasts (Smith, T. J., Bahn, R. S. and Gorman, C. A.: Hormonal regulation of hyaluronate synthesis in cultured human fibroblasts: evidence for differences between retroocular and dermal fibroblasts. J. Clin. Endocrinol. Metab. 69:1019-1023, 1989). However, interferon-γ can modestly upregulate hyaluronan synthesis in orbital but not dermal fibroblasts (Smith, T. J., Bahn, R. S., Gorman, C. A. and Cheavens, M.: Stimulation of glycosaminoglycan accumulation by interferon gamma in cultured human retroocular fibroblasts. J. Clin. Endocrinol. Metab. 72:1169-1171, 1991). […] The macromolecular material was sensitive to Streptomyces hyaluronidase digestion, defining it as hyaluronan (Smith, T. J., Wang, H.-S. and Evans, C. H.: Leukoregulin is a potent inducer of hyaluronan synthesis in cultured orbital fibroblasts. Am. J. Physiol. 268:C382-C388, 1995, appended). The increase was substantially greater in magnitude than that observed in dermal fibroblast strains from the same donors (3-fold) and on the basis of pulse-chase studies could be attributed to changes in net synthesis."}}, "data": [{"substance": "IL-1β: pro-inflammatory cytokine used to activate fibroblasts", "values": [{"measurement": "T Cell Migration (% control)", "setting": "[1]; strain 12, Orbit", "value": "168 +/− 11 % control"}, {"measurement": "T Cell Migration +anti-IL-16", "setting": "[1]; strain 12, Orbit", "value": "143 +/− 9 % control"}, {"measurement": "T Cell Migration +anti-RANTES", "setting": "[1]; strain 12, Orbit", "value": "156 +/− 9 % control"}, {"measurement": "T Cell Migration (% control)", "setting": "[1]; strain 14, Orbit", "value": "189 +/− 10 % control"}, {"measurement": "T Cell Migration +anti-IL-16", "setting": "[1]; strain 14, Orbit", "value": "154 +/− 8 % control"}, {"measurement": "T Cell Migration +anti-RANTES", "setting": "[1]; strain 14, Orbit", "value": "159 +/− 9 % control"}, {"measurement": "T Cell Migration (% control)", "setting": "[1]; strain 15, Extremity Skin", "value": "197 ± 10", "unit": "% control"}, {"measurement": "T Cell Migration +anti-IL-16", "setting": "[1]; strain 15, Extremity Skin", "value": "153 ± 9", "unit": "% control"}, {"measurement": "T Cell Migration +anti-RANTES", "setting": "[1]; strain 15, Extremity Skin", "value": "172 ± 9", "unit": "% control"}, {"measurement": "T Cell Migration (% control)", "setting": "[1]; strain 16, Extremity Skin", "value": "201 ± 7", "unit": "% control"}, {"measurement": "T Cell Migration +anti-IL-16", "setting": "[1]; strain 16, Extremity Skin", "value": "155 ± 8", "unit": "% control"}, {"measurement": "T Cell Migration +anti-RANTES", "setting": "[1]; strain 16, Extremity Skin", "value": "173 ± 7", "unit": "% control"}, {"measurement": "up-regulation of glycosaminoglycan synthesis", "setting": "[2]", "value": 3, "unit": "fold"}]}]}
